# In patent publication US12448388B2, “PRMT5 inhibitors and uses thereof” (Gilead Sciences, Inc., priority 2023, dated 2025):
# Test system: HCT116 MTAP-deleted cell lines
# Assay: Cell viability assay (CellTiter-Glo, 7 days), HCT116 MTAP-deleted
# Type: cell-based
# Conditions: Homo sapiens, HCT-116; cell viability assay, HCT116 MTAP-deleted; class symbols; read-out: CC50
# Outline: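 Dose-response, PRMT5 inhibitors from DMSO serial dilution, pre-spotted; cells seeded onto compound plates. 7 d, 37 °C/5% CO2/90% RH. Readout: CTG luminescence → CC50.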
row,SMILES,CC50
1,"CCN(C(=O)c1cc2c(cc1F)nc(N)c1cncn12)[C@H](C)c1ccc(C(F)(F)F)cn1 [Ff-542, (R)-4-amino-N-ethyl-7-fluoro-N-(1-(5-(trifluoromethyl)pyridin-2-yl)ethyl)imidazo[1,5-a]quinoxaline-8-carboxamide]",< 100 nM
2,"CCN(C(=O)c1cc2c(cc1F)nc(N)c1cncn12)[C@@H](C)c1ccc(C(F)(F)F)cn1 [Ff-543, (S)-4-amino-N-ethyl-7-fluoro-N-(1-(5-(trifluoromethyl)pyridin-2-yl)ethyl)imidazo[1,5-a]quinoxaline-8-carboxamide]",< 100 nM
3,"CN(C(=O)c1cc2c(cc1F)nc(N)c1cncn12)[C@@H]1COc2cc(C3CC3)ccc21 [Ff-546, (S)-4-amino-N-(6-cyclopropyl-2,3-dihydrobenzofuran-3-yl)-7-fluoro-N-methylimidazo[1,5-a]quinoxaline-8-carboxamide]",< 100 nM
4,"CN(Cc1nc(-c2cnn(C(F)(F)F)c2)cs1)C(=O)c1cc2c(cc1F)nc(N)c1cncn12 [Ff-550, 4-amino-7-fluoro-N-methyl-N-((4-(1-(trifluoromethyl)-1H-pyrazol-4-yl)thiazol-2-yl)methyl)imidazo[1,5-a]quinoxaline-8-carboxamide]",100 to 1000 nM
5,"CN(Cc1ccc(-c2cnn(C(F)F)c2)cc1Cl)C(=O)c1cc2c(cc1F)nc(N)c1cncn12 [Ff-551, 4-amino-N-(2-chloro-4-(1-(difluoromethyl)-1H-pyrazol-4-yl)benzyl)-7-fluoro-N-methylimidazo[1,5-a]quinoxaline-8-carboxamide]",100 to 1000 nM
6,"CN(Cc1ccc(-c2cnn(C(F)(F)F)c2)cc1Cl)C(=O)c1cc2c(cc1F)nc(N)c1cncn12 [Ff-552, 4-amino-N-(2-chloro-4-(1-(trifluoromethyl)-1H-pyrazol-4-yl)benzyl)-7-fluoro-N-methylimidazo[1,5-a]quinoxaline-8-carboxamide]",100 to 1000 nM
7,"COc1cc(-c2cnn(C(F)F)c2)ccc1CN(C)C(=O)c1cc2c(cc1F)nc(N)c1cncn12 [Ff-553, 4-amino-N-(4-(1-(difluoromethyl)-1H-pyrazol-4-yl)-2-methoxybenzyl)-7-fluoro-N-methylimidazo[1,5-a]quinoxaline-8-carboxamide]",100 to 1000 nM
8,"COc1cc(-c2cnn(C(F)(F)F)c2)ccc1CN(C)C(=O)c1cc2c(cc1F)nc(N)c1cncn12 [Ff-554, 4-amino-N-(4-(1-(trifluoromethyl)-1H-pyrazol-4-yl)-2-methoxybenzyl)-7-fluoro-N-methylimidazo[1,5-a]quinoxaline-8-carboxamide]",100 to 1000 nM
9,"CN(C(=O)c1cc2c(cc1F)nc(N)c1cncn12)C1COc2cc(Br)c(F)cc21 (centres unmarked) [Ff-560, 4-amino-N-(6-bromo-5-fluoro-2,3-dihydrobenzofuran-3-yl)-7-fluoro-N-methylimidazo[1,5-a]quinoxaline-8-carboxamide]",< 100 nM
10,"CN(C(=O)c1cc2c(cc1C#N)nc(N)c1cncn12)[C@@H]1COc2cc(OC(F)(F)F)ccc21 [Ff-561, (S)-4-amino-7-cyano-N-methyl-N-(6-(trifluoromethoxy)-2,3-dihydrobenzofuran-3-yl)imidazo[1,5-a]quinoxaline-8-carboxamide]",< 100 nM
11,"CN(C(=O)c1cc2c(cc1Cl)nc(N)c1cncn12)[C@@H]1COc2cc(OC(F)(F)F)ccc21 [Ff-562, (S)-4-amino-7-chloro-N-methyl-N-(6-(trifluoromethoxy)-2,3-dihydrobenzofuran-3-yl)imidazo[1,5-a]quinoxaline-8-carboxamide]",< 100 nM
12,"CN(C(=O)c1ccc2nc(N)c3cncn3c2c1)[C@@H]1COc2cc(OC(F)(F)F)ccc21 [Ff-563, (S)-4-amino-N-methyl-N-(6-(trifluoromethoxy)-2,3-dihydrobenzofuran-3-yl)imidazo[1,5-a]quinoxaline-8-carboxamide]",< 100 nM
13,"Cc1ncc2c(N)nc3cc(F)c(C(=O)N(C)[C@@H]4COc5cc(OC(F)(F)F)ccc54)cc3n12 [Ff-564, (S)-4-amino-7-fluoro-N,1-dimethyl-N-(6-(trifluoromethoxy)-2,3-dihydrobenzofuran-3-yl)imidazo[1,5-a]quinoxaline-8-carboxamide]",< 100 nM
14,"CN(C(=O)c1cc2c(cn1)nc(N)c1cncn12)[C@@H]1COc2cc(OC(F)(F)F)ccc21 [Ff-565, (S)-4-amino-N-methyl-N-(6-(trifluoromethoxy)-2,3-dihydrobenzofuran-3-yl)imidazo[1,5-a]pyrido[3,4-e]pyrazine-8-carboxamide]",100 to 1000 nM
15,"CN(C(=O)c1ccc2nc(N)c3cncn3c2c1)[C@@H]1COc2cc(F)ccc21 [Ff-569, (S)-4-amino-N-(6-fluoro-2,3-dihydrobenzofuran-3-yl)-N-methylimidazo[1,5-a]quinoxaline-8-carboxamide]",100 to 1000 nM
16,"CN(C(=O)c1ccc2nc(N)c3cncn3c2c1)[C@@H](c1ccc(C(F)(F)F)cc1Cl)C(F)F [Ff-570, (S)-4-amino-N-(1-(2-chloro-4-(trifluoromethyl)phenyl)-2,2-difluoroethyl)-N-methylimidazo[1,5-a]quinoxaline-8-carboxamide]",100 to 1000 nM

row,SMILES,CC50
1,"CN(C(=O)c1cc2c(cn1)nc(N)c1cncn12)[C@@H](c1ccc(C(F)(F)F)cc1Cl)C(F)F [Ff-571, (S)-4-amino-N-(1-(2-chloro-4-(trifluoromethyl)phenyl)-2,2-difluoroethyl)-N-methylimidazo[1,5-a]pyrido[3,4-e]pyrazine-8-carboxamide]",100 to 1000 nM
2,"CN(C(=O)c1cc2c(cc1F)nc(N)c1cncn12)[C@@H]1COc2cc(C3CC(F)(F)C3)ccc21 [Ff-572, (S)-4-amino-N-(6-(3,3-difluorocyclobutyl)-2,3-dihydrobenzofuran-3-yl)-7-fluoro-N-methylimidazo[1,5-a]quinoxaline-8-carboxamide]",< 100 nM
3,"CN(C(=O)c1cc2c(cc1F)nc(N)c1cncn12)[C@@H]1COc2cc(C3COC3)ccc21 [Ff-573, (S)-4-amino-7-fluoro-N-methyl-N-(6-(oxetan-3-yl)-2,3-dihydrobenzofuran-3-yl)imidazo[1,5-a]quinoxaline-8-carboxamide]",100 to 1000 nM
4,"CN(C(=O)c1cc2c(cc1F)nc(N)c1cncn12)[C@@H]1COc2cc(C3CC3(F)F)ccc21 (stereo partly drawn) [Ff-574, 4-amino-N-((3S)-6-(2,2-difluorocyclopropyl)-2,3-dihydrobenzofuran-3-yl)-7-fluoro-N-methylimidazo[1,5-a]quinoxaline-8-carboxamide]",< 100 nM
5,"CN(C(=O)c1cc2c(cc1F)nc(N)c1cncn12)[C@@H]1COc2cc(C3(C)CC3(F)F)ccc21 (stereo partly drawn) [Ff-575, 4-amino-N-((3S)-6-(2,2-difluoro-1-methylcyclopropyl)-2,3-dihydrobenzofuran-3-yl)-7-fluoro-N-methylimidazo[1,5-a]quinoxaline-8-carboxamide]",< 100 nM
6,"CN(C(=O)c1cc2c(cc1F)nc(N)c1cncn12)[C@@H]1COc2cc(C(F)F)ccc21 [Ff-576, (S)-4-amino-N-(6-(difluoromethyl)-2,3-dihydrobenzofuran-3-yl)-7-fluoro-N-methylimidazo[1,5-a]quinoxaline-8-carboxamide]",100 to 1000 nM
7,"CN(C(=O)c1cc2c(cc1F)nc(N)c1cncn12)C(c1ccc(C(F)(F)F)cn1)C(F)F (centres unmarked) [Ff-577, 4-amino-N-(2,2-difluoro-1-(5-(trifluoromethyl)pyridin-2-yl)ethyl)-7-fluoro-N-methylimidazo[1,5-a]quinoxaline-8-carboxamide]",100 to 1000 nM
8,"C[C@H]1CN(C(=O)c2cc3c(cc2F)nc(N)c2cncn23)[C@H]2c3ccc(C#N)cc3C[C@H]2O1 [Ff-578, (2S,4aS,9aR)-4-(4-amino-7-fluoroimidazo[1,5-a]quinoxaline-8-carbonyl)-2-methyl-2,3,4,4a,9,9a-hexahydroindeno[2,1-b][1,4]oxazine-7-carbonitrile]",< 100 nM
9,"CO[C@@H]1Cc2cc(Br)ccc2[C@@H]1N(C)C(=O)c1cc2c(cc1F)nc(N)c1cncn12 [Ff-579, 4-amino-N-((1S,2R)-5-bromo-2-methoxy-2,3-dihydro-1H-inden-1-yl)-7-fluoro-N-methylimidazo[1,5-a]quinoxaline-8-carboxamide]",< 100 nM
10,"CO[C@@H]1Cc2cc(-c3cnn(C(F)F)c3)ccc2[C@@H]1N(C)C(=O)c1cc2c(cc1F)nc(N)c1cncn12 [Ff-580, 4-amino-N-((1S,2R)-5-(1-(difluoromethyl)-1H-pyrazol-4-yl)-2-methoxy-2,3-dihydro-1H-inden-1-yl)-7-fluoro-N-methylimidazo[1,5-a]quinoxaline-8-carboxamide]",100 to 1000 nM
11,"CO[C@@H]1Cc2cc(C(F)(F)F)ccc2[C@@H]1N(C)C(=O)c1cc2c(cc1F)nc(N)c1cncn12 [Ff-581, 4-amino-7-fluoro-N-((1S,2R)-2-methoxy-5-(trifluoromethyl)-2,3-dihydro-1H-inden-1-yl)-N-methylimidazo[1,5-a]quinoxaline-8-carboxamide]",100 to 1000 nM
12,"CN(C(=O)c1cc2c(cc1F)nc(N)c1cncn12)[C@H]1c2ccc(Br)cc2C[C@H]1OC(F)F [Ff-582, 4-amino-N-((1S,2R)-5-bromo-2-(difluoromethoxy)-2,3-dihydro-1H-inden-1-yl)-7-fluoro-N-methylimidazo[1,5-a]quinoxaline-8-carboxamide]",100 to 1000 nM
13,"CN(C(=O)c1cc2c(cc1F)nc(N)c1cncn12)[C@H]1c2ccc(-c3cnn(C(F)F)c3)cc2C[C@H]1OC(F)F [Ff-583, 4-amino-N-((1S,2R)-2-(difluoromethoxy)-5-(1-(difluoromethyl)-1H-pyrazol-4-yl)-2,3-dihydro-1H-inden-1-yl)-7-fluoro-N-methylimidazo[1,5-a]quinoxaline-8-carboxamide]",100 to 1000 nM
14,CN(C(=O)c1cc2c(cc1F)nc(N)c1cncn12)[C@@H]1COc2cc(OC(F)F)c(F)cc21 [Ff-584],< 100 nM
15,CN(C(=O)c1cc2c(cc1F)nc(N)c1cncn12)[C@@H]1COc2cc(OC(F)F)cc(F)c21 [Ff-585],< 100 nM
16,"Nc1nc2ccc(C(=O)N3CCC[C@@H]4Oc5cc(C(F)(F)F)ccc5[C@@H]43)cc2n2cnc(F)c12 [Ff-588, (4-amino-3-fluoroimidazo[1,5-a]quinoxalin-8-yl)((4aS,9bS)-7-(trifluoromethyl)-3,4,4a,9b-tetrahydrobenzofuro[3,2-b]pyridin-1(2H)-yl)methanone]",< 100 nM
